Assay results taken from ChEMBL document CHEMBL1133239, “Acid catalyzed Michael additions to artemisitene” (2000).

Columns and labels:
Plasmodium falciparum [1] = experiment: Relative antimalarial activity compared to artemisinin against Plasmodium falciparum D6; type: functional
Plasmodium falciparum [2] = experiment: Relative antimalarial activity compared to artemisinin against Plasmodium falciparum W-2; type: functional

SMILES	Relative activity (Plasmodium falciparum [1])	Relative activity (Plasmodium falciparum [2])
C[C@@H]1CC[C@H]2[C@@H](CC#N)C(=O)O[C@@H]3O[C@@]4(C)CC[C@@H]1[C@]32OO4	0.17	0.036
C[C@@H]1CC[C@H]2[C@@H](CC3C=CC(=O)O3)C(=O)O[C@@H]3OC4(C)CC[C@@H]1[C@]32OO4 (single isomer, unassigned)	0.058	0.03
C[C@@H]1CC[C@H]2[C@@H](CC/C(=C/C(=O)c3ccccc3)c3ccccc3)C(=O)O[C@@H]3OC4(C)CC[C@@H]1[C@]32OO4 (single isomer, unassigned)	6.2	0.55
C[C@@H]1CC[C@H]2[C@H](CC3C=CC(=O)O3)C(=O)O[C@@H]3OC4(C)CC[C@@H]1[C@]32OO4 (single isomer, unassigned)	0.33	0.037
C[C@@H]1CC[C@H]2[C@@H](CC3CCCC3=O)C(=O)O[C@@H]3OC4(C)CC[C@@H]1[C@]32OO4 (single isomer, unassigned)	0.47	0.29
C[C@@H]1CC[C@H]2[C@@H](CCC(=O)C(C)(C)C)C(=O)O[C@@H]3OC4(C)CC[C@@H]1[C@]32OO4 (single isomer, unassigned)	7.4	1.13
C[C@@H]1CC[C@H]2[C@H](CCC(=O)C(C)(C)C)C(=O)O[C@@H]3OC4(C)CC[C@@H]1[C@]32OO4 (single isomer, unassigned)	4.5	0.74
C[C@@H]1CC[C@H]2[C@H](CC#N)C(=O)O[C@@H]3OC4(C)CC[C@@H]1[C@]32OO4 (single isomer, unassigned)	0.17	0.036
C=CCC[C@H]1C(=O)O[C@@H]2OC3(C)CC[C@H]4[C@H](C)CC[C@@H]1[C@@]24OO3 (single isomer, unassigned)	2.3	2.9
